Assay [1] deals with T1, human amylin receptor (amylin 3(a) receptor: human calcitonin receptor + RAMP-3) (Homo sapiens, UniProt O60896+P30988).
T1 construct: expressed in transfected cells
T1 sequence (P30988 25-474): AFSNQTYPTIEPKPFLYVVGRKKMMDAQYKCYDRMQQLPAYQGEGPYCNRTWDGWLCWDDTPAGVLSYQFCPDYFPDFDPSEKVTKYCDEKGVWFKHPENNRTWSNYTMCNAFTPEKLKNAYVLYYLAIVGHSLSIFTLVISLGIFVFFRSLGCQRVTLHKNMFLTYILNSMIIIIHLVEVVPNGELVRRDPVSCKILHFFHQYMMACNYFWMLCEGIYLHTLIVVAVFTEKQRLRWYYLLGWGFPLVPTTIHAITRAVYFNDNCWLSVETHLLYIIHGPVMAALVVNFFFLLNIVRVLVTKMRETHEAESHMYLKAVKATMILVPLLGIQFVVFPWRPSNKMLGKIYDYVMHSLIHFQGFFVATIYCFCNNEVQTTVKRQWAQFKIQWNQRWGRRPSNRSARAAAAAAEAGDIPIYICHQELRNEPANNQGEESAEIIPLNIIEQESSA
T1 sequence (O60896 24-148 partner): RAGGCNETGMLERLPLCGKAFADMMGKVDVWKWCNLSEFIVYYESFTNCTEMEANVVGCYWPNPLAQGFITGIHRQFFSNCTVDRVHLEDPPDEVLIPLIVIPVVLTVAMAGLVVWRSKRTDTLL
Put plainly: Assay (II)a functional assay, human amylin receptor (CRE luciferase, BHK cells). It counts as cell-based. The note with it: for pEC50: read-out: hAmylin-R funct. EC50.

Assay [2] has as its target T2, human calcitonin receptor (Homo sapiens, UniProt P30988).
T2 construct: expressed in transfected cells
T2 sequence (P30988 25-474): T1 sequence (P30988 25-474)
Put plainly: Assay (II)a functional assay, human calcitonin receptor (CRE luciferase, BHK cells).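 Note: luminescence from a CRE-driven luciferase reporter, read by single photon counting after cells were exposed to test samples for 3 h at 37 °C under 5% CO2.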 The note with it: read-out: hCTR funct. EC50. It counts as cell-based.
Experimental: Assay (II)—Functional Assays
Consequently, transcription is activated by promoters containing multiple copies of the cAMP response element (CRE).
The cell line was further transfected with RAMP-3, using standard methods.
After incubation overnight at 37° C. and 5% CO2, the growth medium was replaced by 50 μl/well assay medium (DMEM (without phenol red), Glutamax™, 10% FBS, and 10 mM Hepes, pH 7.4). Further, 50 μl/well of standard or sample in assay buffer were added. After 3 hours incubation at 37° C. and 5% CO2, the assay medium with standard or sample were removed and replaced by 100 μl/well PBS. Further, 100 μl/well LucLite™ was added. The plates were sealed and incubated at room temperature for 30 minutes. Finally, luminescence was measured on a TopCounter (Packard) in SPC (single photon counting) mode.

The target of a further assay is T3, human amylin receptor (Homo sapiens, UniProt O60896+P30988).
T3 construct: expressed in transfected cells
T3 sequence (P30988 25-474): T1 sequence (P30988 25-474)
T3 sequence (O60896 24-148 partner): T1 sequence (O60896 24-148 partner)
Put plainly: Assay (V) binding to the human amylin receptor (SPA, 125I-rat amylin). Conditions: for pIC50: human amylin receptor membranes, SPA, read-out: hAmylin-R bind IC50. The gist of the method: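 IC50, taken as receptor affinity, came from one-site binding competition analysis of scintillation proximity counts. Amylin 3(a)/CRE-luc cell membranes (35 ng/μL final) were mixed with SPA beads (0.05 mg/well) in 50 mM Hepes pH 7.4 containing CaCl2, MgCl2, 0.1% OA and 0.02% Tween20.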

Assay [3] has as its target T2, human calcitonin receptor. Put plainly: Assay (VII) binding to the human calcitonin receptor (SPA, 125I-Calcitonin).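 Note: cell membranes coupled to SPA beads, competitive displacement read by scintillation counting, IC50 derived from a one-site competition fit as a measure of receptor affinity.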 The note with it: read-out: hCTR bind IC50.
Setting [4] is: functional assay, human amylin receptor.
Setting [5] is: Table 6, human functional selectivity (hCTR EC50 / hAmylin-R EC50).
The mark [6] stands for this setting: Table 6a, human functional selectivity (hCTR EC50 / hAmylin-R EC50), at least 5.
Setting [7] is: Table 6j, hCTR funct. EC50 / hAmylin-R funct. EC50.
The mark [8] stands for this setting: Table 6k, hCTR funct. EC50 / hAmylin-R funct. EC50.

pEC50, pIC50: −log10 of the molar value. Like-named read-outs stand apart in the source and are kept apart here. Numbered stars: 1 amine (or outer) side, 2 acyl side, 3 side chain; on linkers, the order of the positions; unused ones are H or OH. Bridge positions count the residues as written; N and C are the ends. Side chains are listed from the residue outwards. Peptide text beside a SMILES is read from it. * marks the point of attachment. C20 diacid = O=C(O)CCCCCCCCCCCCCCCCCCC(=O)*; γGlu = O=C(O)[C@H](CCC(=O)[*:2])N[*:1]; AEEA = NCCOCCOCC(=O)O

Consider five compounds from US8575091B1, “Amylin analogues and pharmaceutical compositions thereof” (Novo Nordisk A/S, priority 2012, dated 2013).

What is called pEC50 is −log10 of the EC50, conventionally taken in molar units. As a reminder, the pIC50 is −log10 of the IC50, conventionally taken in molar units.

Take `CC[C@H](C)[C@H](NC(=O)[C@H](C)NC(=O)CNC(=O)[C@H](Cc1ccccc1)NC(=O)[C@H](CC(N)=O)NC(=O)[C@@H]1CCCN1C(=O)[C@H](CO)NC(=O)[C@H](CO)NC(=O)[C@H](Cc1c[nH]cn1)NC(=O)[C@H](CCCNC(=N)N)NC(=O)[C@H](CC(C)C)NC(=O)[C@H](Cc1ccccc1)NC(=O)[C@H](Cc1c[nH]cn1)NC(=O)[C@H](C)NC(=O)[C@H](CC(C)C)NC(=O)[C@H](CCCNC(=N)N)NC(=O)[C@H](CCC(N)=O)NC(=O)[C@@H](NC(=O)[C@H](C)NC(=O)[C@@H]1CSSC[C@H](NC(=O)[C@@H](N)CCCCNC(=O)COCCOCCNC(=O)CC[C@H](NC(=O)CCCCCCCCCCCCCCCCCCC(=O)O)C(=O)O)C(=O)N[C@@H](CC(N)=O)C(=O)N[C@@H]([C@@H](C)O)C(=O)N[C@@H](C)C(=O)N[C@@H]([C@@H](C)O)C(=O)N1)[C@@H](C)O)C(=O)N1CCC[C@H]1C(=O)N[C@@H](CO)C(=O)N[C@@H](CO)C(=O)N[C@H](C(=O)N[C@@H](CC(N)=O)C(=O)N[C@H](C(=O)NCC(=O)N1CCC[C@H]1C(=O)N[C@@H](CC(N)=O)C(=O)N[C@H](C(=O)N[C@@H](Cc1ccc(O)cc1)C(N)=O)[C@@H](C)O)C(C)C)[C@@H](C)O` [Example 68] (H-K([AEEA-γGlu-C20 diacid])CNTATCATQRLAHFLRHSSPNFGAIPSSTNVGPNTY-NH2; disulfide 2-7): the negative logarithm of the EC50 (pEC50) was 10.27 in assay [1] (setting [4]) and 9.03 in assay [2]. The pIC50 on human amylin receptor is 10.06; in assay [3], 8.25.

Take `CC[C@H](C)[C@H](NC(=O)[C@H](C)NC(=O)CNC(=O)[C@H](Cc1ccccc1)NC(=O)[C@H](CC(N)=O)NC(=O)[C@@H]1CCCN1C(=O)[C@H](CO)NC(=O)[C@H](CO)NC(=O)[C@H](Cc1c[nH]cn1)NC(=O)[C@H](CCCNC(=N)N)NC(=O)[C@H](CC(C)C)NC(=O)[C@H](Cc1ccccc1)NC(=O)CNC(=O)[C@H](C)NC(=O)[C@H](CC(C)C)NC(=O)[C@H](CCCNC(=N)N)NC(=O)[C@H](CCC(N)=O)NC(=O)[C@@H](NC(=O)[C@H](C)NC(=O)[C@@H]1CSSC[C@H](NC(=O)[C@@H](N)CCCCNC(=O)COCCOCCNC(=O)CC[C@H](NC(=O)CCCCCCCCCCCCCCCCCCC(=O)O)C(=O)O)C(=O)N[C@@H](CC(N)=O)C(=O)N[C@@H]([C@@H](C)O)C(=O)N[C@@H](C)C(=O)N[C@@H]([C@@H](C)O)C(=O)N1)[C@@H](C)O)C(=O)N1CCC[C@H]1C(=O)N[C@@H](CO)C(=O)N[C@@H](CO)C(=O)N[C@H](C(=O)N1CCC[C@H]1C(=O)N[C@H](C(=O)NCC(=O)N[C@@H](CO)C(=O)N[C@@H](CC(N)=O)C(=O)N[C@H](C(=O)N[C@@H](Cc1ccc(O)cc1)C(N)=O)[C@@H](C)O)C(C)C)[C@@H](C)O` [Example 71] (H-K([AEEA-γGlu-C20 diacid])CNTATCATQRLAGFLRHSSPNFGAIPSSTPVGSNTY-NH2; disulfide 2-7): the “Ratio hCT/hAmylin funct.” value in assay [1] (setting [5]), in assay [1] (setting [6]), in assay [1] (setting [7]) and in assay [1] (setting [8]) was 9.4 in each case. In addition, the pEC50 in assay [1] (Table 6j, human amylin receptor functional) is 10.25; in assay [2], 9.28. For the same compound, the “Ratio hCT/hAmylin binding” value on human amylin receptor (Table 7b, human calcitonin receptor binding IC50 divided by human amylin receptor binding IC50) amounted to 32.0; at human amylin receptor (Table 7c, human calcitonin receptor binding IC50 divided by human amylin receptor binding IC50), 32.0; on human amylin receptor (human binding ratio, included for comparison), 32.0. Also, the negative logarithm of the IC50 (pIC50) was 10.32 on human amylin receptor and 8.81 in assay [3].

Take `CC[C@H](C)[C@H](NC(=O)[C@H](C)NC(=O)CNC(=O)[C@H](Cc1ccccc1)NC(=O)[C@H](CC(N)=O)NC(=O)[C@@H]1CCCN1C(=O)[C@H](CO)NC(=O)[C@H](CO)NC(=O)[C@H](Cc1c[nH]cn1)NC(=O)[C@H](CCCNC(=N)N)NC(=O)[C@H](CC(C)C)NC(=O)[C@H](Cc1ccccc1)NC(=O)[C@H](CCCNC(=N)N)NC(=O)[C@H](C)NC(=O)[C@H](CC(C)C)NC(=O)[C@H](CCCNC(=N)N)NC(=O)[C@H](CCC(N)=O)NC(=O)[C@@H](NC(=O)[C@H](C)NC(=O)[C@@H]1CSSC[C@H](NC(=O)[C@@H](N)CCCCNC(=O)CC[C@H](NC(=O)CCCCCCCCCCCCCCCCCCC(=O)O)C(=O)O)C(=O)N[C@@H](CC(N)=O)C(=O)N[C@@H]([C@@H](C)O)C(=O)N[C@@H](C)C(=O)N[C@@H]([C@@H](C)O)C(=O)N1)[C@@H](C)O)C(=O)N1CCC[C@H]1C(=O)N[C@@H](CO)C(=O)N[C@@H](CO)C(=O)N[C@H](C(=O)N[C@@H](CC(N)=O)C(=O)N[C@H](C(=O)NCC(=O)N[C@@H](CO)C(=O)N[C@@H](CC(N)=O)C(=O)N[C@H](C(=O)N[C@@H](Cc1ccc(O)cc1)C(N)=O)[C@@H](C)O)C(C)C)[C@@H](C)O` [Example 83]: the values for the pEC50 in assay [1] (setting [4]) and in assay [2] were 9.39 and 7.77, respectively. Moreover, the negative-log IC50 (pIC50) is 9.03 on human amylin receptor and 6.86 in assay [3].

Turning to `CC[C@H](C)[C@H](NC(=O)[C@H](C)NC(=O)CNC(=O)[C@H](Cc1ccccc1)NC(=O)[C@H](CC(N)=O)NC(=O)[C@@H]1CCCN1C(=O)[C@H](CO)NC(=O)[C@H](CO)NC(=O)[C@H](Cc1c[nH]cn1)NC(=O)[C@H](CCCNC(=N)N)NC(=O)[C@H](CC(C)C)NC(=O)[C@H](Cc1ccccc1)NC(=O)[C@H](CCC(=O)O)NC(=O)[C@H](C)NC(=O)[C@H](CC(C)C)NC(=O)[C@H](CCCNC(=N)N)NC(=O)[C@H](CCC(N)=O)NC(=O)[C@@H](NC(=O)[C@H](C)NC(=O)[C@@H]1CSSC[C@H](NC(=O)[C@@H](N)CCCCNC(=O)CC[C@H](NC(=O)CC[C@H](NC(=O)CCCCCCCCCCCCCCCCCCC(=O)O)C(=O)O)C(=O)O)C(=O)N[C@@H](CC(N)=O)C(=O)N[C@@H]([C@@H](C)O)C(=O)N[C@@H](C)C(=O)N[C@@H]([C@@H](C)O)C(=O)N1)[C@@H](C)O)C(=O)N1CCC[C@H]1C(=O)N[C@@H](CO)C(=O)N[C@@H](CO)C(=O)N[C@H](C(=O)N[C@@H](CC(N)=O)C(=O)N[C@H](C(=O)NCC(=O)N[C@@H](CCCNC(=N)N)C(=O)N[C@@H](CC(N)=O)C(=O)N[C@H](C(=O)N[C@@H](Cc1ccc(O)cc1)C(N)=O)[C@@H](C)O)C(C)C)[C@@H](C)O` [Example 88] (H-K([γGlu-γGlu-C20 diacid])CNTATCATQRLAEFLRHSSPNFGAIPSSTNVGRNTY-NH2; disulfide 2-7), the “Ratio hCT/hAmylin funct.” value is reported as 8.5 in assay [1] (setting [5]); 8.5 in assay [1] (setting [6]); 8.5 in assay [1] (Table 6i, hCTR funct. EC50 / hAmylin-R funct. EC50); 8.5 in assay [1] (setting [7]); 8.5 in assay [1] (setting [8]). In addition, the pEC50 in assay [1] (Table 6i, human amylin receptor functional) is 9.11; in assay [2], 8.18. Besides, the negative logarithm of the IC50 (pIC50) at human amylin receptor was 9.12; in assay [3], 7.46.

Regarding `CC[C@H](C)[C@H](NC(=O)[C@H](C)NC(=O)CNC(=O)[C@H](Cc1ccccc1)NC(=O)[C@H](CC(N)=O)NC(=O)[C@@H]1CCCN1C(=O)[C@H](CO)NC(=O)[C@H](CO)NC(=O)[C@H](Cc1c[nH]cn1)NC(=O)[C@H](CCCNC(=N)N)NC(=O)[C@H](CC(C)C)NC(=O)[C@H](Cc1ccccc1)NC(=O)[C@H](CC(N)=O)NC(=O)[C@H](C)NC(=O)[C@H](CC(C)C)NC(=O)[C@H](CCCNC(=N)N)NC(=O)[C@H](CCC(N)=O)NC(=O)[C@@H](NC(=O)[C@H](C)NC(=O)[C@@H]1CSSC[C@H](NC(=O)[C@@H](N)CCCCNC(=O)COCCOCCNC(=O)CCCCCCCCCCCCCCCCCCC(=O)O)C(=O)N[C@@H](CC(N)=O)C(=O)N[C@@H]([C@@H](C)O)C(=O)N[C@@H](C)C(=O)N[C@@H]([C@@H](C)O)C(=O)N1)[C@@H](C)O)C(=O)N1CCC[C@H]1C(=O)N[C@@H](CO)C(=O)N[C@@H](CO)C(=O)N[C@H](C(=O)N[C@@H](CC(N)=O)C(=O)N[C@H](C(=O)NCC(=O)N[C@@H](Cc1c[nH]cn1)C(=O)N[C@@H](CC(N)=O)C(=O)N[C@H](C(=O)N[C@@H](Cc1ccc(O)cc1)C(N)=O)[C@@H](C)O)C(C)C)[C@@H](C)O` [Example 91], the pEC50 in assay [1] (setting [4]) was 10.40; in assay [2] it was 8.83. The pIC50 is 9.92 at human amylin receptor and 7.92 in assay [3].
